# From patent US20210401859A1, “METHODS OF TREATING CANCER IN BIOMARKER-IDENTIFIED PATIENTS WITH NON-COVALENT INHIBITORS OF CYCLIN-DEPENDENT KINASE 7 (CDK7)” (Syros Pharmaceuticals, Inc., priority 2018, published 2021)
# How the values were obtained:
# [1] = Plasma exposure on repeated daily dosing in mice; assay type: in vivo; conditions: repeated daily dosing at therapeutic doses in mice (1-6 mg/kg)
# [2] = tested on: ST390 (modeling pancreatic ductal adenocarcinoma (PDAC)); test: TGI in PDAC PDX model ST390; assay type: in vivo, NOD/SCID mice; conditions: 6 mg/kg QD, PO, vehicle ~1,250 mm^3
# Experimental: In the PDAC model, Compound 101 was orally administered to tumor-bearing NOD/SCID mice at 6 mg/kg QD. […] The % regression was calculated as: (Mean TV Compound 101 @ EOT)/(Mean TV Compound 101 @ Day 0)×100. The same calculations were used for end of study (day 42).
# [3] = tested on: BR5010, LU5178, OV15398 PDX models; test: TGI in PDX models BR5010 (TNBC), LU5178 (SCLC), OV15398 (HGSOC); assay type: in vivo, NOD/SCID mice; conditions: TNBC 10 mg/kg QD or 5 mg/kg BID, HGSOC 3 mg/kg BID, PO 21 days, 21 days follow-up
# [4] = tested on: 12 PDX models (SCLC, TNBC, HGSOC); test: TGI and tolerability in 12 PDX models of SCLC, TNBC and HGSOC; assay type: in vivo
# [5] = tested on: ovarian and breast tumor xenografts; test: Daily oral dosing in ovarian and breast tumor xenografts; assay type: in vivo
smiles,measurement,setting,value
"CC1(C)CC[C@H](Nc2ncc(C(F)(F)F)c(-c3c[nH]c4c(P(C)(C)=O)c(C#N)ccc34)n2)CN1 [Compound 101, (S)-7-(dimethylphosphoryl)-3-(2-((6,6-dimethylpiperidin-3-yl)amino)-5-(trifluoromethyl)pyrimidin-4-yl)-1H-indole-6-carbonitrile]",plasma exposures,[1],dose proportional without accumulation
same,tumor volume at day 21,[2],about 250 mm^3
same,TGI (in words),[3],"deep and sustained TGI, including regressions"
same,"TGI at the end of the 21-day dosing period, all models","[4]; 6 or 10 mg/kg QD or 3 or 5 mg/kg BID PO, all 12 models",at least 50%
same,body weight loss / tolerability,"[4]; all once-daily doses tested, tumor-bearing mice",no evident body weight loss
same,tumor regrowth after treatment discontinuation,"[4]; subset 7/12 models, 21 days after treatment discontinuation",no evidence of tumor regrowth
same,TGI of deep responses in a subset of models,"[4]; subset of models (58%, 7/12), TGI or regression",> 95%
same,pharmacodynamic responses in xenograft tumor tissue,[5]; correlated with TGI,rapid (4 hours) and sustained (24 hours) dose-dependent pharmacodynamic responses
same,TGI (in words),[5]; daily oral dosing,dose-dependent TGI
same,lowest dose at which tumor regression was observed,[5]; daily oral dosing,one-fifth of MTD
